Results from patent US20260061066A1, “ANTI-GRP78 ANTIBODY, IMMUNOCONJUGATE AND USES THEREOF” (UCT BIOSCIENCE CO., LTD., priority 2024, published 2026).

Key:
[1] = molecular target: cell surface glucose-related protein 78 (GRP78) on cancer cell lines (human) (UniProt P11021); assay: flow cytometry, OVCAR3 cells; A488-anti-mouse-IgG alone 1.8%
THP-1 cells = assay: In-vitro cytotoxicity, CCK-8 assay; assay type: cell-based, human; settings: THP-1 (AML), cell viability after 48 hours
Experimental: (§1) In-Vitro cytotoxicity assays of GID10-ADC, DM1 and GID10 on HL-60, HCC1806, MDA-MB-231, Raji, RPMI8226, NCI-H929, MM.1S, G-361, THP-1, PL45, AsPC-1, KLM-1, OV90, 4Tl and EL-4 cells. Cell viability was measured after 48 hours using Cell Counting Kit-8 (CCK-8) assay (DOJINDO™, Cat. No. CK04-13), as shown in Table 3. For example, on Day 0, THP-1 cells were seeded at […] cells per well in a 96-well plate and treated with diluted test compounds. The cells were incubated for 48 hours at 37° C. with 5% CO2. On Day 2, 20 μl of CCK-8 was added to each well, followed by incubation for 1-4 hours. Absorbance at 450 nm was then measured to assess cell viability and the impact of the test compounds. […] Cell viability was measured after 48 hours using the Cell Counting Kit-8 (CCK-8) assay (DOJINDO™, Cat. No. CK04-13). IC50 (M) was calculated to determine the efficacy of the antibody, DM1, and ADC on the various cancer cell lines.
(§2) In-Vitro cytotoxicity assays of Dxd-conjugated ADC and free payload Dxd on THP-1, NCI-N87, Capan-1, and KLM-1 cells. Cell viability was measured after 48 hours using Cell Counting Kit-8 (CCK-8) assay (DOJINDO™, Cat. No. CK04-13), as shown in Table 4. […] Absorbance at 450 nm was then measured to assess cell viability and the impact of the test compounds. […] Cell viability was measured after 48 hours using the Cell Counting Kit-8 (CCK-8) assay (DOJINDO™, Cat. No. CK04-13). […]

KLM-1 = assay: In-vitro cytotoxicity, CCK-8 assay; assay type: cell-based; settings: KLM-1 (pancreatic cancer), cell viability after 48 hours
Experimental: as §1, §2

Capan-1 = assay: In-vitro cytotoxicity, CCK-8 assay; assay type: cell-based; settings: Capan-1 (pancreatic cancer); cell viability after 48 hours
Experimental: (§3) In-Vitro cytotoxicity assays of Dxd-conjugated ADC and free payload Dxd on THP-1, NCI-N87, Capan-1, and KLM-1 cells. Cell viability was measured after 48 hours using Cell Counting Kit-8 (CCK-8) assay (DOJINDO™, Cat. No. CK04-13), as shown in Table 4. For example, on Day 0, THP-1 cells were seeded at 5×10^4 cells per well in a 96-well plate and treated with diluted test compounds. The cells were incubated for 48 hours at 37° C. with 5% CO2. On Day 2, 15 μl of CCK-8 was added to each well, followed by incubation for 1-4 hours. Absorbance at 450 nm was then measured to assess cell viability and the impact of the test compounds. For suspension cells, such as THP-1, 2-5×10^4 cells per well were inoculated into a 96-well plate. For adherent cells, such as NCI-N87, Capan-1, and KLM-1, 1.5-5×10^3 cells per well were inoculated based on their doubling time. As shown in FIGS. 6A-6C, THP-1, and KLM-1 cells are not killed in the presence of G1D10 antibody alone. […] Linker-Dxd was used as the positive control agent. The cell lines tested included THP-1, NCI-N87, Capan-1, and KLM-1 cells. Cell viability was measured after 48 hours using the Cell Counting Kit-8 (CCK-8) assay (DOJINDO™, Cat. No. CK04-13). IC50 (M) was calculated to determine the efficacy of the Linker-Dxd and the Dxd-conjugated ADC on the various cancer cell lines.

NCI-N87 = assay: In-vitro cytotoxicity, CCK-8 assay; assay type: cell-based; settings: NCI-N87 (gastric cancer); cell viability after 48 hours
Experimental: as §3

H460 = assay: In-vitro cytotoxicity, CCK-8 assay; assay type: cell-based; settings: H460 (lung cancer); cell viability after 48 hours
4T1 = assay: In-vitro cytotoxicity, CCK-8 assay; assay type: cell-based; settings: 4T1 (murine breast cancer, stage IV); cell viability after 48 hours
Experimental: (§4) In-Vitro cytotoxicity assays of GID10-ADC, DM1 and GID10 on HL-60, HCC1806, MDA-MB-231, Raji, RPMI8226, NCI-H929, MM.1S, G-361, THP-1, PL45, AsPC-1, KLM-1, OV90, 4Tl and EL-4 cells. Cell viability was measured after 48 hours using Cell Counting Kit-8 (CCK-8) assay (DOJINDO™, Cat. No. CK04-13), as shown in Table 3. For example, on Day 0, THP-1 cells were seeded at […] cells per well in a 96-well plate and treated with diluted test compounds. The cells were incubated for 48 hours at 37° C. with 5% CO2. On Day 2, 20 μl of CCK-8 was added to each well, followed by incubation for 1-4 hours. Absorbance at 450 nm was then measured to assess cell viability and the impact of the test compounds. For suspension cells, such as HL-60, Raji, RPMI8226, NCI-H929, MM. 1S, and THP-1, 5×10^4 cells per well were inoculated into a 96-well plate. For adherent cells, such as HCC1806, MDA-MB-231, G361, PL45, AsPC-1, KLM-1, OV90, and EL-4, 1.5-5×10^3 cells per well were inoculated based on their doubling time. Adherent cells with a doubling time of less than 24 hours were seeded at 1.5×10^3 cells per well (EL-4), while those with a doubling time of more than 24 hours were seeded at 5×10^3 cells per well. […] DM1 was used as the positive control agent. The cell lines tested included HL-60, HCC1806, MDA-MB-231, Raji, RPMI8226, NCI-H929, MM.1S, G-361, THP-1, PL45, AsPC-1, KLM-1, OV90, 4T1, and EL-4 cells. Cell viability was measured after 48 hours using the Cell Counting Kit-8 (CCK-8) assay (DOJINDO™, Cat. No. CK04-13). IC50 (M) was calculated to determine the efficacy of the antibody, DM1, and ADC on the various cancer cell lines.

ASPC1 = assay: In-vitro cytotoxicity, CCK-8 assay; assay type: cell-based; settings: ASPC1 (pancreatic cancer); cell viability after 48 hours
Experimental: as §4

EL4 = assay: In-vitro cytotoxicity, CCK-8 assay; assay type: cell-based; settings: EL4 (murine lymphoma); cell viability after 48 hours
Experimental: as §4

G361 = assay: In-vitro cytotoxicity, CCK-8 assay; assay type: cell-based; settings: G361 (melanoma); cell viability after 48 hours
Experimental: as §4

HCC1806 = assay: In-vitro cytotoxicity, CCK-8 assay; assay type: cell-based; settings: HCC1806 (TNBC); cell viability after 48 hours
Experimental: as §4

MDA-MB-231 = assay: In-vitro cytotoxicity, CCK-8 assay; assay type: cell-based; settings: MDA-MB-231 (TNBC); cell viability after 48 hours
Experimental: as §4

MM.1S = assay: In-vitro cytotoxicity, CCK-8 assay; assay type: cell-based; settings: MM.1S (MM); cell viability after 48 hours
Experimental: as §4

NCI-H929 = assay: In-vitro cytotoxicity, CCK-8 assay; assay type: cell-based; settings: NCI-H929 (MM); cell viability after 48 hours
Experimental: as §4

OV90 = assay: In-vitro cytotoxicity, CCK-8 assay; assay type: cell-based; settings: OV90 (ovarian cancer); cell viability after 48 hours
Experimental: as §4

RPMI8226 = assay: In-vitro cytotoxicity, CCK-8 assay; assay type: cell-based; settings: RPMI8226 (MM); cell viability after 48 hours
Experimental: as §4

Raji = assay: In-vitro cytotoxicity, CCK-8 assay; assay type: cell-based; settings: Raji (DLBCL); cell viability after 48 hours
Experimental: as §4

cell surface glucose-related protein 78 (GRP78) on cancer cell lines (human), sequence (P11021 19-654): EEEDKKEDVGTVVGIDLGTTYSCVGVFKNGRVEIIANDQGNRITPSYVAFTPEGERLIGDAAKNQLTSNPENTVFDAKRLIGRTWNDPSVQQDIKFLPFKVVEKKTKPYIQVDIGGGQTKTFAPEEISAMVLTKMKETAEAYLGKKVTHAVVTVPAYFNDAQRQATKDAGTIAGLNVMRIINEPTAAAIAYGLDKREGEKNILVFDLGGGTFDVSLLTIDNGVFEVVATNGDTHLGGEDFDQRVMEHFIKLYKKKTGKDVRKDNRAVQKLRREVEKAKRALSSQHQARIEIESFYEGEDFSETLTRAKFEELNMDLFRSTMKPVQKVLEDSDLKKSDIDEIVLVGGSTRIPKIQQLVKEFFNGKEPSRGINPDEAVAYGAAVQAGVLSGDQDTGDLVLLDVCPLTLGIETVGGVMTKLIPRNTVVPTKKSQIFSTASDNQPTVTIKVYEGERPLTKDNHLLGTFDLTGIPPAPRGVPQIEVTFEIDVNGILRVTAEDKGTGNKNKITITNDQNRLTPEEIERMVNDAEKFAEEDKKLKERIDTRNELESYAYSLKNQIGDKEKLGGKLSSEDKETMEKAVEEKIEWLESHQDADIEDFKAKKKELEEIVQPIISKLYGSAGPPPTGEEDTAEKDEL

anti-GRP78 antibody C38 (eBioscience, Cat. No. 14-9768-82)
% (flow cytometry cell surface staining) [1]: 2.3%

N-hydrozysuccinimide (NHS)-VC-para-aminobenzyl carbamate (PABC)-Dxd [Linker-Dxd]
IC50 (THP-1 cells; Table 4): 61.2 nM | IC50 (KLM-1; Table 4): 184 nM | IC50 (Capan-1): 296 nM | IC50 (NCI-N87): 161 nM

COc1cc2cc(c1Cl)N(C)C(=O)C[C@H](OC(=O)[C@H](C)N(C)C(=O)CCS)[C@]1(C)O[C@H]1[C@H](C)[C@@H]1C[C@@](O)(NC(=O)O1)[C@H](OC)/C=C/C=C(\C)C2 [DM1, emtansine (DM1)]
IC50 (H460): 1.68 nM | IC50 (4T1): 83 nM | IC50 (ASPC1): 60.2 nM | IC50 (EL4): 1.52 nM | IC50 (G361): 3.11 nM | IC50 (HCC1806): 27.2 nM | IC50 (MDA-MB-231): 28.5 nM | IC50 (MM.1S): 4.86 nM | IC50 (NCI-H929): 1.13 nM | IC50 (OV90): 55.2 nM | IC50 (RPMI8226): 1.79 nM | IC50 (Raji): 4.35 nM | IC50 (THP-1 cells; Table 3): 4.63 nM | IC50 (KLM-1; Table 3): 1.61 nM
